Assay results published in US12492210B2, “Tricyclic compounds and their use” (HUTCHISON MEDIPHARMA LIMITED, priority 2019, dated 2025).

Experiments:
[1] = target: T1, MAPK1(ERK2) enzyme (Homo sapiens, UniProt P28482); assay: Z-Lyte Kinase Assay of ERK2; format: biochemical; settings: read-out: Example 18 IC50
T1 construct: purchased Invitrogen PV3313
Experimental: Example 18: Z-Lyte Kinase Assay of ERK2
1. Materials and Reagents:
2. Reaction Steps: Plate Map
3. Solution Preparation • 1) 1.33× Kinase Buffer: Dilute 5× Kinase Buffer to 1.33× with ddH2O • 2) 4× Test Compounds: Serially dilute the test compounds to 4 folds of the concentrations desired, keeping the DMSO concentration at 8%. The final concentrations are 1, 0.33, 0.11, 0.037, 0.012, 0.004, 0.0014, 0.00046 μM, and the final concentration of DMSO is 2%. • 3) Kinase/Peptide Mixture (P/K solution): Prepare Kinase/Peptide Mixture by diluting the kinase to 0.6 μg/ml and the Z-LYTE™ Ser/Thr3 peptide to 4 μM in 1.33× Kinase Buffer. Mix gently by pipetting. • 4) Phospho-peptide Solution (PP solution): Add 0.4 μl of Z-LYTE™ Ser/Thr3 Phospho-peptide to 99.6 μl of 1.33× Kinase Buffer. • 5) ATP Solution: Prepare ATP Solution by diluting the 10 mM of ATP in 1.33× Kinase Buffer to 100 μM. • 6) Development Solution: Dilute Development Reagent A with Development Buffer as 1:1024. 4. Reaction • 1) Kinase reaction (10 μl of Volume) • a. In a 384-well plate, add 2.5 μl of 4× test Cpds to each well except C1, C2, C3 wells Add 2.5 μl of 8% DMSO to C1, C2, C3 wells • b. Put the plate on ice • c. Add 5 μl of P/K mixture to each test Cpd wells and C1, C2 wells • d. Add 5 μl of PP Solution to C3 well • e. Add 2.5 μl of 1.33× kinase buffer to C1 and C3 wells • f. Add 2.5 μl of 4×ATP Solution to each test Cpd wells and C2 well, respectively. Shake the plate for 30 Sec and centrifuge (1500 rpm, 1 min) • g. Seal the plate to protect from the light and incubate the plate for 1 hour at RT (25-30° C.) • 2) Development reaction • a. Add 5 μl of the Development solution to all wells • b. Shake the plate for 30 sec and centrifuge (1500 rpm, 1 min) • c. Seal the plate to protect from the light and incubate the plate for 1 hour at RT (25-30° C.) • 3) Stop and read • a. Add 5 μl of the Stop reagent to all wells • b. Shake the plate for 30 sec and centrifuge (1500 rpm, 1 min) • c. Measure the value of coumarin (Ex400 nm, Em445 nm) and fluorescein (Ex400 nm, Em520 nm), respectively. 5. Data Analysis Emission Ratio(ER)=Coumarin Emission (445 nm)/Fluorescein Emission (520 nm) % Phosphorylation=1−[ER×C3520nm−C3445nm]/[(C1445nm−C3445nm)+ER×(C3520nm−C1520nm)] Inhibition rate (IR)=1−% Photest Cpd% PhoC2 6. IC50 Value: determine IC50 with add-in software for Microsoft Excel, XLfit™ (version 2.0) from ID Business Solutions (Guildford, UK)

[2] = system: p-RSK (Thr359) in colo205 cells; assay: p-RSK (Thr359) Acumen Assay in Colo205; format: cell-based; settings: Homo sapiens, COLO 205, 1 hour compound incubation, read-out: Example 19 IC50
Experimental: Example 19: p-RSK (Thr359) Acumen Assay in Colo205
• Phospho-p90RSK (Thr359) (D1E9) Rabbit mAb: cell signal, #8753 • Alexa Fluor® 488 donkey anti-rabbit IgG: invitrogen, #A-21206 • Propidium Iodide: Sigma, #p4170 • 4% Paraformaldehyde: SCRC, #DF021 • 10% Triton X-100: PIERCE, #28314 • 96-well plate (black with clear bottom): BD, #354640 • Acumen® eX3 (A Multilaser Microplate Cytometer For Enhanced High Content Screening): TTP LabTech 3. Acumen Assay Protocol • Seed 4000 cells in 100 μl 10% FBS/well into 96-well plate, incubate at 37° C., 5% CO2, overnight. • Dilute the compound to 3, 1, 0.33, 0.11, 0.037, 0.012, 0.004, 0.001 μM, keeping the DMSO concentration at 5%. Add 10 μl of diluted compound per well and incubate at 37° C., 5% CO2 for 1 hour. • Add 100 μl of 4% pre-warmed Paraformaldehyde (2% final), and incubate for 45 min at room temperature. • Remove paraformaldehyde solutions. Add 100 μl of ice-cold 0.1% Triton to fixed cells at room temperature for 30 min. • Wash twice with 150 μl PBS and incubate with 100 μl blocking buffer (1% BSA, in PBS) for 2˜3 hours at room temperature, seal the plate. • Wash once with PBS and incubate with 35 μl p-RSK (Thr359) (1:1000 dilution) overnight at 4° C. Seal the plate. • Wash twice with PBS and incubate for 1.5 hours at room temperature with 35 μl of Alexa Fluor® 488 donkey anti-rabbit IgG at a 1:1,000 dilution in antibody dilution buffer (0.1% BSA, in PBS). Cover plate in foil to keep out of light. • Wash twice with 150 μl PBS. Add 35 μl of 1.5 μM Propidium Iodide stock to each well to determine cell number, seal the plate. • Incubate at room temperature for 30 min. Load the plate into the Acumen Explorer and scan with the appropriate instrument settings. 4. Data Analysis
[formula] Note: • Percentagecompound well represents the positive percentage of cells treated by compound. • Percentagemin well represents the positive percentage of cells treated with 3 uM GDC0994. • Percentagemax well represents the positive percentage of cells without compounds treatment. 5. IC50 Value: determine IC50 with add-in software for Microsoft Excel, XLfit™ (version 2.0) from ID Business Solutions (Guildford, UK)

T1 sequence (P28482 whole entry): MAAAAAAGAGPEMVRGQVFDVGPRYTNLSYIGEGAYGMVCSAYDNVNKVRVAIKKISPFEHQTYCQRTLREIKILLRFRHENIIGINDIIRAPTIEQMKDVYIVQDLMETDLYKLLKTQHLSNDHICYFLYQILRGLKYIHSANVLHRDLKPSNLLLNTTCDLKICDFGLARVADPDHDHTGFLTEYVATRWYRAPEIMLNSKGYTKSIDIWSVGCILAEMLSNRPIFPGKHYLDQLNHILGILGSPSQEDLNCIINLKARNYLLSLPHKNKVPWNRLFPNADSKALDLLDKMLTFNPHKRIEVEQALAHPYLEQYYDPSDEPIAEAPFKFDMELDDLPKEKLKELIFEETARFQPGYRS

SMILES	IC50 [1] [nM]	IC50 [2] [nM]
Cc1cnc(Nc2ccnn2C)nc1-c1cc2n(c1)CCCn1c(Cc3ccccc3F)nnc1-2 [Compound 6]	5 to 10	≤ 100
Cn1nccc1Nc1cc(-c2cc3n(c2)CC2(CCC2)Cn2c-3nnc2C(F)(F)C(F)F)c(Cl)cn1 [Compound 119]	5 to 10	> 100
C[C@H]1Cn2cc(-c3cc(Nc4ccnn4C)ncc3Cl)cc2-c2nnc(C(F)(F)c3ccccc3F)n21 [Compound 135]	5 to 10	≤ 100
C[C@H]1Cn2cc(-c3ccnc(Nc4ccnn4C)c3)cc2-c2nnc(C(F)(F)c3ccccc3Cl)n21 [Compound 91]	5 to 10	≤ 100
Cc1cnc(Nc2ccnn2C)cc1-c1cc2n(c1)C[C@H](CF)n1c-2nnc1C(F)(F)c1ccc(F)c(F)c1 [Compound 181]	5 to 10	> 100
Cc1cnc(Nc2ccnn2C)nc1-c1cc2n(c1)C[C@H](C)n1c-2nnc1C(F)(F)c1c(F)cccc1F [Compound 130]	5 to 10	> 100
Cn1nccc1Nc1cc(-c2cc3n(c2)C[C@H](CF)n2c-3nnc2C(F)(F)c2ccccc2Cl)ccn1 [Compound 138]	5 to 10	≤ 100
Cn1nccc1Nc1cc(-c2cc3n(c2)CC(C)(C)Cn2c-3nnc2C2(C(F)(F)F)CCC2)c(Cl)cn1 [Compound 159]	5 to 10	≤ 100
CC[C@H]1Cn2cc(-c3nc(Nc4ccnn4C)ncc3C)cc2-c2nnc(C(F)(F)c3ccccc3F)n21 [Compound 265]	> 10	> 100
Cn1nccc1Nc1cc(-c2cc3n(c2)C[C@H](CF)n2c-3nnc2C(F)(F)n2cc(Cl)cn2)c(Cl)cn1 [Compound 200]	5 to 10	≤ 100
Cc1cnc(Nc2ccnn2CC(F)F)nc1-c1cc2n(c1)C[C@H](C)n1c-2nnc1C(F)(F)c1ccccc1F [Compound 298]	> 10	≤ 100
Cn1nccc1Nc1nccc(-c2cc3n(c2)C[C@H](C(F)(F)F)n2c-3nnc2C(F)(F)c2ccccc2F)n1 [Compound 273]	5 to 10	> 100
Cn1nccc1Nc1cc(-c2cc3n(c2)CC(F)(F)Cn2c(Cn4ncc5ccccc54)nnc2-3)c(Cl)cn1 [Compound 199]	5 to 10	> 100
Cn1nccc1Nc1nccc(-c2cc3c4nnc(Cc5cccc(F)c5)n4ccn3c2)n1 [Compound 282]	≤ 5	> 100
Cn1nccc1Nc1nccc(-c2cc3c4nnc(Nc5ccccc5F)n4ccn3c2)n1 [Compound 41, N-(2-fluorophenyl)-9-(2-((1-methyl-1H-pyrazol-5-yl)amino)pyrimidin-4-yl)pyrrolo[1,2-a][1,2,4]triazolo[3,4-c]pyrazin-3-amine]	≤ 5	> 100
Cn1nccc1Nc1cc(-c2cc3n(c2)CC(F)(F)Cn2c-3nnc2C2(C(F)F)COC2)c(Cl)cn1 [Compound 32]	≤ 5	≤ 100
Cc1cnc(Nc2ccnn2C)cc1-c1cc2n(c1)CC1(CCC1)Cn1c-2nnc1C1(C(F)(F)F)CCC1 [Compound 129]	≤ 5	≤ 100
Cc1cnc(Nc2ccnn2C)cc1-c1cc2n(c1)C[C@H](CF)n1c-2nnc1C(F)(F)c1ccccc1 [Compound 86]	5 to 10	≤ 100
Cn1nccc1Nc1cc(-c2cc3n(c2)CCCn2c-3nnc2C2(C(F)F)CC(F)(F)C2)c(Cl)cn1 [Compound 120]	≤ 5	≤ 100

Now from value to compound:

IC50 [1] [nM]	IC50 [2] [nM]	SMILES
≤ 5	≤ 100	Cn1nccc1Nc1ncc(F)c(-c2cc3n(c2)C[C@H](CF)n2c-3nnc2C(F)(F)n2cc(Cl)cn2)n1 [Compound 166]
≤ 5	≤ 100	Cc1cnc(Nc2ccnn2C)nc1-c1cc2n(c1)CCCn1c-2nnc1C1(C(F)(F)F)CCC1 [Compound 12]
≤ 5	≤ 100	Cc1cnc(Nc2ccnn2C)nc1-c1cc2n(c1)[C@@H](C)Cn1c-2nnc1C1(C(F)(F)F)CCC1 [Compound 47]
≤ 5	≤ 100	Cn1nccc1Nc1ncc(Cl)c(-c2cc3n(c2)CCCn2c(COC4(C(F)(F)F)CCC4)nnc2-3)n1 [Compound 213]
≤ 5	≤ 100	Cn1nccc1Nc1cc(-c2cc3n(c2)CC(F)(F)Cn2c(Cn4cccc4C#N)nnc2-3)c(Cl)cn1 [Compound 217, 1-((10-(5-chloro-2-((1-methyl-1H-pyrazol-5-yl)amino)pyridin-4-yl)-6,6-difluoro-6,7-dihydro-5H-pyrrolo[1,2-a][1,2,4]triazolo[3,4-c][1,4]diazepin-3-yl)methyl)-1H-pyrrole-2-carbonitrile]
≤ 5	> 100	Cn1nccc1Nc1cc(-c2cc3n(c2)C[C@H](CF)n2c-3nnc2C(F)(F)c2ncco2)c(Cl)cn1 [Compound 110]
≤ 5	> 100	Cn1nccc1Nc1cc(-c2cc3n(c2)CCCn2c-3nnc2C(C)(C)C(F)(F)F)c(Cl)cn1 [Compound 22]
≤ 5	≤ 100	Cc1cnc(Nc2ccnn2C)nc1-c1cc2n(c1)CCn1c(COc3ccccc3F)nnc1-2 [Compound 7]
≤ 5	> 100	Cc1cnc(Nc2ccnn2C)cc1-c1cc2n(c1)C[C@H](CF)n1c-2nnc1C(F)(F)C(F)(F)F [Compound 76]
≤ 5	≤ 100	CC1CCn2c(nnc2C2(C(F)(F)F)CCC2)-c2cc(-c3cc(Nc4ccnn4C)ncc3Cl)cn21 (stereo not drawn) [Compound 52]
≤ 5	≤ 100	Cc1cnc(N[C@@H](C)CO)nc1-c1cc2n(c1)CCCn1c-2nnc1C1(C(F)(F)F)CCC1 [Compound 275, (S)-2-((5-methyl-4-(3-(1-(trifluoromethyl)cyclobutyl)-6,7-dihydro-5H-pyrrolo[1,2-a][1,2,4]triazolo[3,4-c][1,4]diazepin-10-yl)pyrimidin-2-yl)amino)propan-1-ol]
≤ 5	> 100	Cc1cnc(Nc2ccnn2C)nc1-c1cc2n(c1)C[C@@H](C)n1c-2nnc1C1(C(F)(F)F)CCC1 [Compound 239]
≤ 5	≤ 100	Cc1cnc(NC2CCOCC2)nc1-c1cc2n(c1)CCCn1c-2nnc1C1(C(F)(F)F)CCC1 [Compound 277]
≤ 5	> 100	Cc1cnc(Nc2ccnn2C)cc1-c1cc2n(c1)C[C@H](F)Cn1c-2nnc1C(F)(F)C(F)(F)F [Compound 75]
